According to patent US20210220434A1, “Treatment of Vascular Occlusion by Activation of Notch Signaling” (The Regents of the University of California, priority 2018, published 2021):

Assays:
[1] = tested on: distal middle cerebral artery occlusion (dMCAO) mouse model; assay: Ladder test of neurological function after dMCAO; format: in vivo
Text: (§1) FIGS. 6A, 6B, and 6C. […] FIG. 6A depicts the time course of the experiment, with recombinant DLL4 administered one day prior to and for seven days following dMCAO stroke induction. FIG. 6B: Collateral artery diameter, velocity, and flux, and the area between the vertical lines denotes the period of DLL4 administration. Triangles: rDLL4, Circles: Control. Control, n=5, Treated; n=5. *P<0.05, **P<0.01. FIG. 6C depicts ladder test results for mice are subject to behavior test at 15 to 17 days after experimental stroke, the scores being the average of the two measurements.
(§2) Collateral artery size and function was assessed at seven and fourteen days following injury.

[2] = tested on: distal middle cerebral artery occlusion (dMCAO) mouse model; assay: Collateral artery size and function after dMCAO stroke induction; format: in vivo
Text: as §1, §2

[3] = wild type C57BL/6J mice, dMCAO, daily iv for eight days from the day before dMCAO, day 7, vs control

Question: With “rDLL4: recombinant mouse DLL4 (Delta-like ligand 4), a Notch activating ligand, given intravenously” as the substance, how does the “neurological function, ladder test” value ([1]; day 15 and 17 after dMCAO, vs control) read?
Answer: The value was “higher in the treated mice”.

Question: What about the neurological function ([1]; following dMCAO, FIG. 6 legend) of the same substance?
Answer: Its neurological function is “improving neurological function”.

Question: And the “collateral artery size and function (diameter, velocity, flux)” value ([2]; day 14 after dMCAO, 7 days after administration was halted, vs control)?
Answer: Its value is “Significant improvements in the treated mice persisted”.

Question: And the cerebral blood flow ([2]; following dMCAO, FIG. 6 legend)?
Answer: Its cerebral blood flow is “preserves cerebral blood flow”.

Question: And the growth of collaterals ([2]; following dMCAO, FIG. 6 legend)?
Answer: Its growth of collaterals is “improves growth of collaterals”.

Question: What about the collateral artery diameter [2, 3] of the same substance?
Answer: Its collateral artery diameter is “significantly improved”.

Question: And the collateral artery flux [2, 3]?
Answer: Its collateral artery flux is “significantly improved”.

Question: What about the collateral artery velocity [2, 3] of the same substance?
Answer: Its collateral artery velocity is “significantly improved”.
